Results on 1 compound are retold here after article PMC7285485, “Antifungal and Antibiofilm Activities and the Mechanism of Action of Repeating Lysine-Tryptophan Peptides against Candida albicans” (Microorganisms, 2020).

The nature of data set [1]: Calcein leakage from fungal membrane mimetic liposomes. The settings on record: 2.5 μM lipid, peptide 0.0–0.25 μΜ, 25 min, 25 °C; 100% = 0.1% Triton X-100; highest P/L ratio tested. The procedure: (§1) Calcein-entrapped LUVs composed of PE–PC–PI–ergosterol (5:4:1:2, w/w/w/w) or PC–CH–SM (1:1:1, w/w/w) were prepared by mixing the dried lipid in buffer solution (containing 70 mM calcein, PBS, pH 7.4). The suspension was freeze-thawed in liquid nitrogen for nine cycles and then extruded through two stacked […] pore-size polycarbonate filters for 16 times using an Avanti Mini-Extruder (Avanti Polar Lipids Inc., Alabaster, AL, USA). Vesicles containing entrapped calcein were separated from free calcein by gel filtration chromatography on a Sephadex G-50 column. Entrapped LUVs in a suspension containing 2.5 μM lipids were then incubated with various concentrations of the peptide (0.0–0.25 μΜ) for 25 min. The release of calcein fluorescence was followed using a spectrofluorometer (Perkin-Elmer LS55, Mid Glamorgan, UK) with appropriate wavelengths (excitation, 480 nm; and emission, 520 nm). […] Spontaneous leakage was determined to be negligible on this timescale. […] The percentage of calcein release was calculated according to the following equation [41]:Release (%) = 100 × (F − Fo)/(Ft − Fo) (Ex. 480 nm and Em. 520 nm)(1) where F represent the fluorescence intensity before the addition of the detergent, Ft represents the fluorescence intensity after the addition of the detergent and Fo represents the fluorescence of the intact vesicles.

In data set [2] the test system is C. albicans. As to the kind of experiment: SYTOX Green membrane permeabilization. It is filed as cell-based, Candida albicans. The settings on record: 2 × 10^7 cells/mL, 1 µM SYTOX Green, followed for 120 min. As to the method:
Membrane permeabilization of C. albicans was studied using the fluorescent dye SYTOX Green (Molecular Probes, Eugene, OR, USA). Fungal cells were grown to mid-logarithmic growth phase then centrifuged, washed and resuspended in PBS. Cells were suspended in PBS (2 × 10^7 cells/mL) and incubated with 1 µM SYTOX Green for 15 min in the dark prior to the influx assay. At 2–3 min after initiating data collection, 1/2× or 1× MIC peptides were added to the cell suspensions. Due to the binding of the dye to intracellular DNA, the increases in SYTOX Green fluorescence was measured for 120 min (excitation and emission wavelengths were 485 nm and 520 nm, respectively). Lysis of the cells in Triton X-100 (0.1%) or melittin gave maximum fluorescence.

Data set [3] relates to C. albicans (CCARM 140020). As to the kind of experiment: microbe, parasite or virus in culture. In kind it is cell-based, Candida albicans. The settings on record: fluconazole-resistant strain CCARM 140020; 24 to 30 h, 28 °C; read-out: Minimum Inhibitory Concentrations.
Another data set relates to C. albicans (KCTC 7270). Briefly: microbe, parasite or virus in culture. In kind it is cell-based, Candida albicans. The settings on record: 2 × 10^4 cells/mL, YPD/PBS, 24 to 30 h, 28 °C, read-out: Minimum Inhibitory Concentrations. As to the method:
(§2) The fungal strains C. albicans (KCTC 7270), C. catenulate (7642), C. intermidia (7234), C. rugosa (7324), C. glabrata (7219) and C. melibiosica (KCTC 7631) were cultured at 28 °C in appropriate media. Fungal cells (final concentration 2 × 10^4 cells/ mL) in 50 μL of YPD media (dextrose 2%, peptone 1% and yeast extract 0.5%) were seeded in each well of a microtiter plate containing 50 μL of two-fold serially diluted peptides in phosphate buffered saline. After incubation for 24 to 30 h at 28 °C, the lowest concentration of the peptides inhibiting the growth of the fungi was microscopically determined to be the minimum inhibitory concentrations (MICs). The effect of salt concentration on the antifungal activity of the peptides was tested by determining the MICs in the presence of NaCl and MgCl2. Fixed concentrations of NaCl (50, 100 and 150 mM) or MgCl2 (1, 2 and 5 mM) were added to the sodium phosphate buffer (pH 7.2). The effect of pH on the antifungal activity of the peptides was tested by determining peptide MICs in the presence of sodium phosphate buffer at a variety of pH values.

A further data set has as its system C. catenulate. As to the kind of experiment: microbe, parasite or virus in culture. The settings on record: C. catenulate; read-out: Minimum inhibitory concentration. It is filed as cell-based, Candida catenulate. As to the method: as §2
The subject of data set [4] is C. albicans (CCARM 14007). As to the kind of experiment: microbe, parasite or virus in culture. In kind it is cell-based, Candida albicans. The conditions noted are these: fluconazole-resistant strain CCARM 14007; 24 to 30 h, 28 °C; read-out: Minimum Inhibitory Concentrations.
Data set [5] is described as follows: Calcein leakage from eukaryotic membrane mimetic liposomes. The conditions noted are these: 2.5 μM lipid, peptide 0.0–0.25 μΜ, 25 min, 25 °C; 100% = 0.1% Triton X-100. As to the method: as §1
For data set [6], the system named is C. albicans (CCARM 14001). Briefly: microbe, parasite or virus in culture. It is filed as cell-based, Candida albicans. The settings on record: fluconazole-resistant strain CCARM 14001; 24 to 30 h, 28 °C; read-out: Minimum Inhibitory Concentrations.
Another data set has as its system C. rugosa. Briefly: microbe, parasite or virus in culture. In kind it is cell-based, Candida rugosa. The conditions noted are these: C. rugosa; read-out: Minimum inhibitory concentration. The procedure:
as §2

Data set [7] deals with HaCaT (human keratinocyte) cells. Briefly: Cytotoxicity, MTT assay. In kind it is cell-based. The settings on record: 24 h. As to the method: We examined the cytotoxic effects of the peptides using HaCaT (human keratinocyte) cells, which were cultured in Dulbecco’s modified Eagle medium (DMEM) supplemented with antibiotics (100 U/mL penicillin, 100 µg/mL streptomycin) and 10% fetal calf serum at 37 °C in a humidified chamber with atmosphere containing 5% CO2. To measure viable cells and growth inhibition, an MTT colorimetric assay was used. A total of 4 × 10^3 cells was seeded per well into a 96-well plate incubated at 37 °C for 24 h. The next day, cells from plates were treated with various concentrations of the tested peptides. After 24 h incubation at 37 °C, MTT (10 μL) was added at a concentration of 5 mg/mL to each well. The culture supernatants were discarded after a further 4 h, and the remaining precipitate was dissolved by the addition of 100 μL of DMSO into the wells. Absorbance was then measured at a wavelength of 570 nm using an EL800 reader (Bio-Tek instruments, Inc., Winooski, VT, USA).
(Formazan colour is commonly taken as a measure of viable cells.)

The next data set deals with C. glabrata. Briefly: microbe, parasite or virus in culture. It is filed as cell-based, Candida glabrata. The settings on record: C. glabrata; read-out: Minimum inhibitory concentration. As to the method:
as §2

Data set [8] has as its system C. albicans. As to the kind of experiment: Fluorescence microscopy of PI cell permeabilization. It is filed as cell-based, Candida albicans. The conditions noted are these: 8 μM KW4 or 4 μM melittin, 10, 20 and 30 min, 28 °C. As to the method: The cell permeability was monitored using the DNA-staining fluorescent probe PI as previously described. For this experiment, C. albicans cells were grown in YPD broth with shaking at 200 rpm overnight at 28 °C. Cells were harvested by centrifugation (4000 rpm for 10 min), washed and suspended in PBS to yield 2 × 10^6 cells/mL; 100 μL of C. albicans suspensions (2 × 10^6 cells/mL) were incubated with 5 μL from respective peptide aqueous stock solutions to yield a final peptide concentration of 8 μM KW4 peptide or 4 μM melittin (as a control peptide) for 10, 20 and 30 min at 28 °C. Next, PI was added to each sample at a final concentration of 1 μg/mL and the plate was incubated at 28 °C for 5 min. The effects of the peptides on C. albicans were visualized by the EVOS FL Auto 2 imaging system (Invitrogen, Waltham, MA, USA). Cells without added peptide served as a control.

For another data set, the system named is C. melibiosica. As to the kind of experiment: microbe, parasite or virus in culture. In kind it is cell-based, Candida melibiosica. The settings on record: C. melibiosica; read-out: Minimum inhibitory concentration. The procedure:
as §2

A further data set has as its system C. intermedia. Briefly: microbe, parasite or virus in culture. It is filed as cell-based, Candida intermedia. The conditions noted are these: C. intermedia; read-out: Minimum inhibitory concentration. As to the method: as §2

≈ marks a conversion by molar mass, not a printed value.

For the compound `CC[C@H](C)[C@H](NC(=O)CN)C(=O)NCC(=O)N[C@@H](C)C(=O)N[C@H](C(=O)N[C@@H](CC(C)C)C(=O)N[C@@H](CCCCN)C(=O)N[C@H](C(=O)N[C@@H](CC(C)C)C(=O)N[C@H](C(=O)N[C@H](C(=O)NCC(=O)N[C@@H](CC(C)C)C(=O)N1CCC[C@H]1C(=O)N[C@@H](C)C(=O)N[C@@H](CC(C)C)C(=O)N[C@H](C(=O)N[C@@H](CO)C(=O)N[C@@H](Cc1c[nH]c2ccccc12)C(=O)N[C@H](C(=O)N[C@@H](CCCCN)C(=O)N[C@@H](CCCNC(=N)N)C(=O)N[C@@H](CCCCN)C(=O)N[C@@H](CCCNC(=N)N)C(=O)N[C@@H](CCC(N)=O)C(=O)N[C@@H](CCC(N)=O)C(N)=O)[C@@H](C)CC)[C@@H](C)CC)[C@@H](C)O)[C@@H](C)O)C(C)C)C(C)C` [Melittin, melittin, reference compound], in [1], the “Calcein leakage from PE–PC–PI–ergosterol liposomes” value is recorded as 80%. Moreover, the “Time to complete membrane permeabilization (SYTOX green)” value in the data set on C. albicans [2] is listed as at most 35 min. The MIC in data set [3] was found to be 8 µM (≈ 22.8 µg/mL); with C. albicans (KCTC 7270), 4 µM; with C. catenulate it was 8 µM; in data set [4], 8 µM (≈ 22.8 µg/mL); in [6] it was 16 µM (≈ 45.5 µg/mL); in the data set on C. rugosa, 8 µM. Besides, the MIC in the data set on C. glabrata turned out to be 4 µM; in the data set with C. melibiosica it was 8 µM; in the data set on C. intermedia, 8 µM. Moreover, the “Calcein leakage from PC–CH–SM liposomes” value in data set [5] was 90%. Moreover, the “Cytotoxicity against HaCaT cells” value in data set [7] (12.5 μM) came out at 100%. In addition, in data set [7] (HaCaT cells, 200 µM peptide), the Cell survival was found to be 0%. In the data set on C. albicans [8], the “PI uptake seen by fluorescence microscopy” value was “allowed the uptake of PI”.
